Source: ChEMBL document CHEMBL4699534, “Optimizing PEG-Extended Apelin Analogues as Cardioprotective Drug Leads: Importance of the KFRR Motif and Aromatic Head Group for Improved Physiological Activity” (J Med Chem, 2020)
Non-standard residues stand in square brackets, D forms with d. Residues, ends and D or L forms follow the SMILES beside them. Phe(4-Br) = N[C@@H](Cc1ccc(Br)cc1)C(=O)O; PEG7 = NCCOCCOCCOCCOCCOCCOCCOCCC(=O)O; NMeR = CN[C@@H](CCCNC(=N)N)C(=O)O; αMeR = C[C@](N)(CCCNC(=N)N)C(=O)O; NMeL = CN[C@@H](CC(C)C)C(=O)O; Nle = CCCC[C@H](N)C(=O)O; Aib = CC(C)(N)C(=O)O

What was measured:
Apelin receptor [1] = target: T1, Apelin receptor (Homo sapiens, UniProt P35414); experiment: Activation of APJ receptor (unknown origin) expressed in Chem-5 cells assessed as stimulation of Ca2+ mobilization by Calcium 6-GF dye based fluorescence based assay; type: functional, cell-based
T1 sequence (P35414 whole entry): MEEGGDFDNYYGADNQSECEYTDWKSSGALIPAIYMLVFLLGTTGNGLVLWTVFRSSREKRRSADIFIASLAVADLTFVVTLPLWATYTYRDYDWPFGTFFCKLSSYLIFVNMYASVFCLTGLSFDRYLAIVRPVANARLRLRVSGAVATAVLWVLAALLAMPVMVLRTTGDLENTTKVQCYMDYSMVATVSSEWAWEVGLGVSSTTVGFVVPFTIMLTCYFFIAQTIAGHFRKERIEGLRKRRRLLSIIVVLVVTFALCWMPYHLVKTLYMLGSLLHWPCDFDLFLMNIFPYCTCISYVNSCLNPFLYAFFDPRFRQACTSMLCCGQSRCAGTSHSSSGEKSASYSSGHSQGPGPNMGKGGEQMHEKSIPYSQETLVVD

Apelin receptor [2] = target: T2, Apelin receptor (Rattus norvegicus, UniProt Q9JHG3); experiment: Displacement of [125I]-pyr-1-apelin-13 from EGFP-tagged wild-type rat apelin receptor expressed in CHO cell membranes by gamma counting method; set-up: species or system Cell membrane
T2 sequence (Q9JHG3 whole entry): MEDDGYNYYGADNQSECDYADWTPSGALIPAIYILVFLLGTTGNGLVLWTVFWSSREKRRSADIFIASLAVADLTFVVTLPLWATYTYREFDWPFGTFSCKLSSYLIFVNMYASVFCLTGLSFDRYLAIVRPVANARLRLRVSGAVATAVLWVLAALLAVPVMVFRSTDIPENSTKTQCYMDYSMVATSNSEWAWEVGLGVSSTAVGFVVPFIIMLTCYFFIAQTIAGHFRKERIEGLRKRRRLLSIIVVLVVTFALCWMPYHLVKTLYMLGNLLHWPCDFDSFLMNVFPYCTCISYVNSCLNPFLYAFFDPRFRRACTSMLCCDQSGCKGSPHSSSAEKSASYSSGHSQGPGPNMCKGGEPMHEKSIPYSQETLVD

Mus musculus = experiment: Cardioprotective activity in C57BL/6 mouse assessed as reduction in mean arterial blood pressure at 1.4 uM/kg, iv measured after 15 mins relative to control; type: functional; conditions: 0.25 h
[3] = Half life in human plasma at 400 uM by HPLC analysis; type: ADME, cell-free

Compound	EC50 (Apelin receptor [1])	IC50 (Apelin receptor [2])	Activity (Mus musculus)	half-life at 400 µM [3]
CSCC[C@H](NC(=O)[C@@H]1CCCN1C(=O)CNC(=O)[C@H](CCCCN)NC(=O)[C@H](Cc1c[nH]cn1)NC(=O)[C@H](CO)NC(=O)[C@H](CC(C)C)NC(=O)[C@H](CCCNC(=N)N)NC(=O)[C@@H]1CCCN1C(=O)[C@H](CCCNC(=N)N)NC(=O)[C@H](CCC(N)=O)NC(=O)[C@H](CCCNC(=N)N)NC(=O)[C@H](CCCNC(=N)N)NC(=O)[C@H](C)NC(=O)[C@@H](N)CCCCN)C(=O)N1CCC[C@H]1C(=O)N[C@@H](Cc1ccccc1)C(=O)O	6.17 nM	1 nM	-3 mmHg	–
CSCC[C@H](NC(=O)[C@@H]1CCCN1C(=O)CNC(=O)[C@H](CCCCN)NC(=O)[C@H](Cc1c[nH]cn1)NC(=O)[C@H](CO)NC(=O)[C@H](CC(C)C)NC(=O)[C@H](CCCNC(=N)N)NC(=O)[C@@H]1CCCN1C(=O)[C@H](CCCNC(=N)N)NC(=O)[C@H](CCC(N)=O)NC(=O)[C@H](C)NC(=O)[C@H](CCCNC(=N)N)NC(=O)[C@H](Cc1ccccc1)NC(=O)[C@@H](N)CCCCN)C(=O)N1CCC[C@H]1C(=O)N[C@@H](Cc1ccccc1)C(=O)O	74.1 nM	2.19 nM	-9 mmHg	–
CSCC[C@H](NC(=O)[C@@H]1CCCN1C(=O)CNC(=O)[C@H](CCCCN)NC(=O)[C@H](Cc1c[nH]cn1)NC(=O)[C@H](CO)NC(=O)[C@H](CC(C)C)NC(=O)[C@H](CCCNC(=N)N)NC(=O)[C@@H]1CCCN1C(=O)[C@H](CCCNC(=N)N)NC(=O)[C@H](CCC(N)=O)NC(=O)[C@H](CCCNC(=N)N)NC(=O)[C@H](CCCNC(=N)N)NC(=O)[C@H](Cc1ccccc1)NC(=O)[C@H](C)N)C(=O)N1CCC[C@H]1C(=O)N[C@@H](Cc1ccccc1)C(=O)O	5.37 nM	1 nM	-14 mmHg	–
CCCC[C@H](NC(=O)[C@@H]1CCCN1C(=O)CNC(=O)[C@H](CCCCN)NC(=O)[C@H](Cc1c[nH]cn1)NC(=O)[C@H](CO)NC(=O)[C@H](CC(C)C)N(C)C(=O)[C@H](CCCNC(=N)N)NC(=O)[C@@H]1CCCN1C(=O)[C@H](CCCNC(=N)N)NC(=O)[C@H](CCC(N)=O)NC(=O)CCOCCOCCOCCOCCOCCOCCOCCOCCOCCOCCNC(=O)OCC1c2ccccc2-c2ccccc21)C(=O)NC(C)(C)C(=O)N[C@@H](Cc1ccc(Br)cc1)C(=O)O	> 200 nM	1.91 nM	1 mmHg	8.6 h
CCCC[C@H](NC(=O)[C@@H]1CCCN1C(=O)CNC(=O)[C@H](CCCCN)NC(=O)[C@H](Cc1c[nH]cn1)NC(=O)[C@H](CO)NC(=O)[C@H](CC(C)C)N(C)C(=O)[C@H](CCCNC(=N)N)NC(=O)[C@@H]1CCCN1C(=O)[C@H](CCCNC(=N)N)NC(=O)[C@H](CCC(N)=O)NC(=O)CCOCCOCCOCCOCCOCCOCCNC(=O)OCC1c2ccccc2-c2ccccc21)C(=O)NC(C)(C)C(=O)N[C@@H](Cc1ccc(Br)cc1)C(=O)O	49 nM	3.02 nM	9 mmHg	6.9 h
CSCC[C@H](NC(=O)[C@@H]1CCCN1C(=O)CNC(=O)[C@H](CCCCN)NC(=O)[C@H](Cc1c[nH]cn1)NC(=O)[C@H](CO)NC(=O)[C@H](CC(C)C)NC(=O)[C@H](CCCNC(=N)N)NC(=O)[C@@H]1CCCN1C(=O)[C@H](CCCNC(=N)N)NC(=O)[C@H](CCC(N)=O)NC(=O)[C@H](CCCNC(=N)N)NC(=O)[C@H](C)NC(=O)[C@H](Cc1ccccc1)NC(=O)[C@@H](N)CCCCN)C(=O)N1CCC[C@H]1C(=O)N[C@@H](Cc1ccccc1)C(=O)O	39.8 nM	1.41 nM	1 mmHg	–
CCCC[C@H](NC(=O)[C@@H]1CCCN1C(=O)CNC(=O)[C@H](CCCCN)NC(=O)[C@H](Cc1c[nH]cn1)NC(=O)[C@H](CO)NC(=O)[C@H](CC(C)C)NC(=O)[C@H](CCCNC(=N)N)NC(=O)[C@@H]1CCCN1C(=O)[C@H](CCCNC(=N)N)NC(=O)[C@H](CCC(N)=O)NC(=O)[C@H](CCCNC(=N)N)NC(=O)[C@H](CCCNC(=N)N)NC(=O)[C@H](Cc1ccccc1)NC(=O)[C@H](C)N)C(=O)NC(C)(C)C(=O)N[C@@H](Cc1ccc(Br)cc1)C(=O)O (H-AFRRQRPRLSHKGP[Nle][Aib][Phe(4-Br)]-OH)	–	0.2 nM	–	–
CCCC[C@H](NC(=O)[C@@H]1CCCN1C(=O)CNC(=O)[C@H](CCCCN)NC(=O)[C@H](Cc1c[nH]cn1)NC(=O)[C@H](CO)NC(=O)[C@H](CC(C)C)N(C)C(=O)[C@H](CCCNC(=N)N)NC(=O)[C@@H]1CCCN1C(=O)[C@H](CCCNC(=N)N)NC(=O)[C@H](CCC(N)=O)NC(=O)[C@H](CCCNC(=N)N)NC(=O)[C@H](CCCNC(=N)N)NC(=O)[C@H](Cc1ccccc1)NC(=O)[C@H](CCCCN)NC(=O)CCOCCOCCOCCOCCOCCOCCOCCNC(=O)[C@@H](N)Cc1ccccc1)C(=O)NC(C)(C)C(=O)N[C@@H](Cc1ccc(Br)cc1)C(=O)O (H-F[PEG7]KFRRQRPR[NMeL]SHKGP[Nle][Aib][Phe(4-Br)]-OH)	25.7 nM	1.7 nM	24 mmHg	6.4 h
CCCC[C@H](NC(=O)[C@@H]1CCCN1C(=O)CNC(=O)[C@H](CCCCN)NC(=O)[C@H](Cc1c[nH]cn1)NC(=O)[C@H](CO)NC(=O)[C@H](CC(C)C)NC(=O)[C@H](CCCNC(=N)N)NC(=O)[C@@H]1CCCN1C(=O)[C@H](CCCNC(=N)N)NC(=O)[C@H](CCC(N)=O)NC(=O)[C@H](CCCNC(=N)N)NC(=O)[C@H](CCCNC(=N)N)NC(=O)[C@H](C)NC(=O)[C@@H](N)CCCCN)C(=O)NC(C)(C)C(=O)N[C@@H](Cc1ccc(Br)cc1)C(=O)O (H-KARRQRPRLSHKGP[Nle][Aib][Phe(4-Br)]-OH)	–	0.295 nM	–	–
CCCC[C@H](NC(=O)[C@@H]1CCCN1C(=O)CNC(=O)[C@H](CCCCN)NC(=O)[C@H](Cc1c[nH]cn1)NC(=O)[C@H](CO)NC(=O)[C@H](CC(C)C)NC(=O)[C@H](CCCNC(=N)N)NC(=O)[C@@H]1CCCN1C(=O)[C@H](CCCNC(=N)N)NC(=O)[C@H](CCC(N)=O)NC(=O)[C@H](CCCNC(=N)N)NC(=O)[C@H](C)NC(=O)[C@H](Cc1ccccc1)NC(=O)[C@@H](N)CCCCN)C(=O)NC(C)(C)C(=O)N[C@@H](Cc1ccc(Br)cc1)C(=O)O (H-KFARQRPRLSHKGP[Nle][Aib][Phe(4-Br)]-OH)	–	0.219 nM	–	–
CCCC[C@H](NC(=O)[C@@H]1CCCN1C(=O)CNC(=O)[C@H](CCCCN)NC(=O)[C@H](Cc1c[nH]cn1)NC(=O)[C@H](CO)NC(=O)[C@H](CC(C)C)NC(=O)[C@H](CCCNC(=N)N)NC(=O)[C@@H]1CCCN1C(=O)[C@H](CCCNC(=N)N)NC(=O)[C@H](CCC(N)=O)NC(=O)[C@H](C)NC(=O)[C@H](CCCNC(=N)N)NC(=O)[C@H](Cc1ccccc1)NC(=O)[C@@H](N)CCCCN)C(=O)NC(C)(C)C(=O)N[C@@H](Cc1ccc(Br)cc1)C(=O)O (H-KFRAQRPRLSHKGP[Nle][Aib][Phe(4-Br)]-OH)	–	0.302 nM	–	–
CCCC[C@H](NC(=O)[C@@H]1CCCN1C(=O)CNC(=O)[C@H](CCCCN)NC(=O)[C@H](Cc1c[nH]cn1)NC(=O)[C@H](CO)NC(=O)[C@H](CC(C)C)N(C)C(=O)[C@H](CCCNC(=N)N)NC(=O)[C@@H]1CCCN1C(=O)[C@H](CCCNC(=N)N)NC(=O)[C@H](CCC(N)=O)NC(=O)[C@H](CCCNC(=N)N)N(C)C(=O)[C@H](CCCNC(=N)N)NC(=O)[C@H](Cc1ccccc1)NC(=O)[C@@H](N)CCCCN)C(=O)NC(C)(C)C(=O)N[C@@H](Cc1ccc(Br)cc1)C(=O)O (H-KFR[NMeR]QRPR[NMeL]SHKGP[Nle][Aib][Phe(4-Br)]-OH)	3.47 nM	1.51 nM	14 mmHg	5.2 h
CCCC[C@H](NC(=O)[C@@H]1CCCN1C(=O)CNC(=O)[C@H](CCCCN)NC(=O)[C@H](Cc1c[nH]cn1)NC(=O)[C@H](CO)NC(=O)[C@H](CC(C)C)N(C)C(=O)[C@H](CCCNC(=N)N)NC(=O)[C@@H]1CCCN1C(=O)[C@H](CCCNC(=N)N)NC(=O)[C@H](CCC(N)=O)NC(=O)[C@](C)(CCCNC(=N)N)NC(=O)[C@H](CCCNC(=N)N)NC(=O)[C@H](Cc1ccccc1)NC(=O)[C@@H](N)CCCCN)C(=O)NC(C)(C)C(=O)N[C@@H](Cc1ccc(Br)cc1)C(=O)O (H-KFR[αMeR]QRPR[NMeL]SHKGP[Nle][Aib][Phe(4-Br)]-OH)	2.4 nM	1 nM	18 mmHg	7.1 h
